# Results published in US5817756A, “Pseudo- and non-peptide bradykinin receptor antagonists” (Scios Inc., priority 1995, dated 1998).
# Starred links: 1 amine or outer side, 2 acyl side, 3 side chain; linkers in the order of their positions; H or OH if unused. Non-standard residues stand in square brackets, D forms with d. Residues, ends and D or L forms follow the SMILES beside them. Oic = O=C(O)[C@@H]1C[C@@H]2CCCC[C@@H]2N1; X10 = O=C(C(/C=C/CN[*:1])Cc1ccccc1)[*:2]; X5 = O=C(/C=C/c1cccc(CN[*:1])c1)[*:2]; X11 = O=C(/C=C/C1CCCCC1CN[*:1])[*:2]; X13 = O=C(CCc1cccc(CN[*:1])c1)[*:2]; X2 = O=C(/C=C/c1ccccc1CN[*:1])[*:2]; Hyp = O=C(O)[C@@H]1C[C@@H](O)CN1; X8 = O=C(CCc1ccccc1CN[*:1])[*:2]; dTic = O=C(O)[C@H]1Cc2ccccc2CN1
# Tested on: bradykinin-induced contraction of guinea pig ileum longitudinal muscle
# Assay: Guinea pig ileum contraction assay
# Format: cell-based
# Settings: Schild analysis against bradykinin
# Experimental: Guinea pig intestine was removed and placed in a Petri dish containing Tyrodes solution and cut into 3-4 cm segments.
# After equilibration of the tissues, appropriate volumes of bradykinin solutions were cumulatively added to the 10 ml tissue baths to increase the concentration of bradykinin in the bath step-by-step without washing out after each single dose. Higher concentrations were added only after the preceding contraction had reached a steady value. […] Antagonism of bradykinin responses to the presence of antagonist were determined by repeating the cumulative addition procedure for bradykinin after the tissue has been exposed to the antagonist for 5 minutes. Three or four different concentrations of antagonist were studied sequentially in the same preparations. Responses were expressed as a percentage of the maximum […] elicited by bradykinin in the absence of antagonist. pA2 values were calculated by Schild analysis.
row,Structure (SMILES),Guinea Pig Ileum Contraction pA2
1,N=C(N)NCCC[C@@H](N)C(=O)N[C@@H](CCCNC(=N)N)C(=O)N1CCC2(CC1)C(=O)N(CC(=O)N[C@@H](CO)C(=O)N1Cc3ccccc3C[C@@H]1C(=O)N1[C@H](C(=O)N[C@@H](CCCNC(=N)N)C(=O)O)C[C@@H]3CCCC[C@@H]31)CN2c1ccccc1 [HDArgArgX[Ph]CH2 COSerDTicOicArgOH],6.7
2,N=C(N)NCCC[C@@H](N)C(=O)N[C@@H](CCCNC(=N)N)C(=O)N1CCC2(CC1)C(=O)N(CC(=O)N[C@@H](CO)C(=O)N1Cc3ccccc3C[C@@H]1C(=O)N1[C@H](C(=O)N[C@@H](CCCNC(=N)N)C(=O)O)C[C@@H]3CCCC[C@@H]31)CN2C1CCCCC1 [HDArgArgX[c-C6 H11]CH2 COSerDTicOicArgOH],6.4

# Target: T1, human bradykinin B2 receptor (Homo sapiens, UniProt P30411)
# T1 construct: The HindIII/XbaI fragment of one full-length clone, 126A, was inserted into pcDNAI neo vector; expressed in transfected cells
# T1 sequence (P30411 1-391): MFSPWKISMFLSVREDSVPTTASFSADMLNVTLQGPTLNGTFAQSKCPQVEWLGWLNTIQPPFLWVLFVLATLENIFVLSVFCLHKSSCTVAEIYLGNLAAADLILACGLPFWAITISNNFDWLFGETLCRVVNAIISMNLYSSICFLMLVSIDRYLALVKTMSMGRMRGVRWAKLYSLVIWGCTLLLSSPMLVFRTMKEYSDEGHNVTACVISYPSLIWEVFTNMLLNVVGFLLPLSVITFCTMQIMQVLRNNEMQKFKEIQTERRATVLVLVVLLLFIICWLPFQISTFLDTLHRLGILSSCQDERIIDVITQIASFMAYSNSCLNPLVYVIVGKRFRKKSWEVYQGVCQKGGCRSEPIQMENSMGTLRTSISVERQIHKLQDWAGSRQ
# Assay: Radioligand binding, H2O.2 cell membranes, 3H-NPC17731
# Settings: Table 1; 3H-NPC17731; read-out: Radioligand Binding Human 3H17731
# Experimental: A human bradykinin B2 receptor was expressed in CHO/K cells. Briefly, approximately 2×10^6 plaques from a human uterus λgt10 cDNA library (Clontech Laboratories; Palo Alto, Calif.) were screened using a PCR fragment containing the coding region of the rat B2 receptor. This probe was generated by random-primed synthesis in the presence of α[^32 P]dATP. Duplicate filters were hybridized overnight at 42° C. in 1M NaCl, 50 mM Tris pH 7.5, 5× Denhardt's, 200 μg/ml salmon sperm DNA, 1% SDS, and 20% formamide. The filters were washed at 65° C. in 1× SSC and 1% SDS. Coincident positively hybridizing plaques were purified and rescreened with the same probe and stringency conditions. EcoRI fragments of positive clones were inserted into Bluescript/KS II+vector (Stratagene; La Jolla, Calif.) for sequence determination.
# The nucleotide sequence of the cloned human B2 receptors was determined using double-stranded DNA and the dideoxy chain termination method. Commercially available T3 and T7 oligonucleotides (USB; Cleveland, Ohio) and synthetic 21-mer oligonucleotides (DNA/RNA Synthesizer; applied Biosystems Inc.; Palo Alto, Calif.) from both the known rat sequence and the determined human sequence were used to identify the nucleotide sequence from the 5' untranslated end to the BglII site in the 3' untranslated end of the clone.
# CHO/K cells were plated in 2 ml of growth medium (Ham's F12 with 10% FBS) per 6 well plate and incubated at 37° C., 5% CO2 until they were 60% confluent. For each well, 4, 12, and 16 μg of DNA was diluted in 100 μl Opti-MEM I reduced serum medium (Gibco/BRL; Gaithersburg, Md.). 12 μl of TransfectASE reagent (Gibco/BRL) was diluted in a separate aliquot of 100 μl Opti-MEM I. The DNA and TransfecASE solutions were combined, mixed gently, and incubated at 25° C. for 15 minutes. This solution was then diluted to 1 ml with Opti-MEM I. Each well was washed twice with Opti-MEM I and 1 ml of the DNA/TransfectAse complex was added to each well. After a 5 hour incubation at 37° C. and 5% CO2, 1 ml of Ham's F12 with 20% FBS was added to each well and cells were incubated overnight. Media was replaced with growth medium and incubated for additional 24 hours.
# This assay measures the ability of a bradykinin antagonist compound to compete for binding to the human B2 receptor with tritiated bradykinin or tritiated NPC17731, a bradykinin analog which is known to bind the B2 receptor and act as a bradykinin antagonist.
# H2O.2 cells were grown to confluency in Ham's F12 media containing 10% FBS and 500 μg/ml Geneticin. Growth media was aspirated and the monolayer washed once with Dulbecco's PBS without Ca^++ and Mg^++. Cells were scraped in Dulbecco's PBS and centrifuged at 2,000×g for 10 minutes. Pellets were resuspended in 25 mM TES, 1 mM 1,10-phenanthroline pH 6.8 buffer and homogenized using a Ploytron at setting 5 for 10 seconds. An aliquot was taken for a protein determination using a BioRad protein assay kit. Membranes were centrifuged at 48,000×g for 10 minutes at 4° C. Pellets were resuspended in the TES buffer with 0.1% BSA and 0.014% bacitracin. 0.5 ml aliquots were frozen in liquid N2 and stored at -80° C. for up to 2 weeks.
# Membranes from H2O.2 cells previously prepared were thawed at 37° C. and diluted in 25 mM TES, […] 1,10-phenanthroline pH 6.8 containing BSA and bactiracin. […] Non-specific binding was determined with 1 μM bradykinin. The tubes were incubated 90 minutes at 25° C. and the assay was terminated by rapid vacuum filtration onto Whatman GF/B filters presoaked with 0.2% PEI for 3 hours followed by 2×3 ml aliquots of ice-cold 50 mM Tris, pH 7.4. Radioactivity was counted with a Beckman scintillation counter.
row,Structure (SMILES),Ki
1,N=C(N)NCCC[C@@H](N)C(=O)N[C@@H](CCCNC(=N)N)C(=O)NCc1ccccc1/C=C/C(=O)N[C@@H](CO)C(=O)N1Cc2ccccc2C[C@@H]1C(=O)N1[C@H](C(=O)N[C@@H](CCCNC(=N)N)C(=O)O)C[C@@H]2CCCC[C@@H]21 (H-[dR]R[X2]S[dTic][Oic]R-OH),27 nM

# Target: T2, bradykinin receptor, guinea pig terminal ileum homogenate (Cavia porcellus, UniProt O70526)
# T2 construct: from tissue; host or cells: terminal ileum of male Hartley guinea pigs, washed membrane homogenate
# T2 sequence (O70526 1-372): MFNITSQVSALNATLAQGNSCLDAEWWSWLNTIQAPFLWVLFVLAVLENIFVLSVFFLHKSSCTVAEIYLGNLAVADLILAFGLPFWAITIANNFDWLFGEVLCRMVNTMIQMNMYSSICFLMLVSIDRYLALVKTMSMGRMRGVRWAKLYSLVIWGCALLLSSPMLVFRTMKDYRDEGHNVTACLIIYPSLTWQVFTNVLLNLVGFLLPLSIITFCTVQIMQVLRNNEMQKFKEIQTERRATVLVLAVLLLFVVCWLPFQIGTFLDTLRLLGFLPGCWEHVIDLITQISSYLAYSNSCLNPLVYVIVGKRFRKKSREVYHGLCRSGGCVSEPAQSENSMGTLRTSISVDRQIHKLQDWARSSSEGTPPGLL
# Assay: Guinea pig ileum binding of 3H-bradykinin
# Settings: Table 1, read-out: Radioligand Binding Guinea Pig
# Experimental: Binding of ^3 H-bradykinin was performed using the method of D. C. Manning, R. Vavrek, J. M. Stewart, and S. H. Snyder, J. Pharmacol. Exp. Ther., (1986) 237:504. The tissues used in the binding assay were terminal ileum from male Hartley guinea pigs (150-350 g). After dissection, tissues were placed in 20 volume of ice-cold buffer A (25 mM TES containing 0.2 g/l of 1,10-phenanthroline adjusted of pH 6.8 with ammonium hydroxide) and homogenized using a Polytron Tissumizer at setting 6 for 15 seconds. The homogenate was centrifuged at 50,000×g for 10 minutes, the supernatant discarded, and the pellet resuspended in ice-cold buffer A by homogenization with the Polytron. Each tissue was homogenized and centrifuged three times. The final pellet was resuspended in buffer A containing bovine serum albumin (1 g/l) and Bacitracin (0.14 g/l) to a final volume of 170 ml/g of the original tissue weight. The binding assay consisted of […] in 12×75 mm polypropylene tubes: 50 μl ^3 H-bradykinin (20,000 dpm, ~0.3 nM in the final assay volume), 100 μl displacing drug in buffer A, and 750 μl tissue homogenate. Each tray contained tubes, to which no drug was added to measure maximum binding and tubes to which bradykinin (1 μM final concentration) had been added, to measure […]. Specific binding accounted for 96-98% total binding. Tubes were incubated for 90 minutes at ambient temperature. The assays were terminated by filtration over Whatman GF/B glass fiber filters that had been pretreated for 2 hours with polyethyleneimine (2 g/l) using a Brandel Tissue Harvester, followed by washing with 4×1 ml aliquots of ice-cold 50 mM Tris, pH 7.4. Filters were dissolved in Ready-Safe Fluor (Beckman) for at least 90 minutes before quantitation by liquid scintillation spectrometry. Kd values were determined using saturation binding and analysis by EBDA (G. A. MacPherson, J. Pharmacol. Methods (1985) 213), followed by LIGAND (P. J. Munson, D. Rodbard, Anal. Biochem. (1980) 220). Ki values were determined using competitive analysis followed by EBDA and LIGAND.
row,Structure (SMILES),Ki
1,N=C(N)NCCC[C@@H](N)C(=O)N[C@@H](CCCNC(=N)N)C(=O)N1CCC[C@H]1C(=O)N1C[C@H](O)C[C@H]1C(=O)NC/C=C/C(Cc1ccccc1)C(=O)N[C@@H](CO)C(=O)N1Cc2ccccc2C[C@@H]1C(=O)N1[C@H](C(=O)N[C@@H](CCCNC(=N)N)C(=O)O)C[C@@H]2CCCC[C@@H]21 (some centres unmarked) (H-[dR]RP[Hyp][X10]S[dTic][Oic]R-OH),358 nM
2,C[C@H](NC(=O)/C=C/c1ccccc1CNC(=O)[C@H](CCCNC(=N)N)NC(=O)[C@H](N)CCCNC(=N)N)C(=O)N1Cc2ccccc2C[C@@H]1C(=O)N1[C@H](C(=O)N[C@@H](CCCNC(=N)N)C(=O)O)C[C@@H]2CCCC[C@@H]21 (H-[dR]R[X2]A[dTic][Oic]R-OH),278 nM
3,N=C(N)NCCC[C@@H](N)C(=O)N[C@@H](CCCNC(=N)N)C(=O)NCc1ccccc1/C=C/C(=O)N[C@@H](Cc1ccccc1)C(=O)N[C@@H](CO)C(=O)N1Cc2ccccc2C[C@@H]1C(=O)N1[C@H](C(=O)N[C@@H](CCCNC(=N)N)C(=O)O)C[C@@H]2CCCC[C@@H]21 (H-[dR]R[X2]FS[dTic][Oic]R-OH),1270 nM
4,N=C(N)NCCC[C@@H](N)C(=O)N[C@@H](CCCNC(=N)N)C(=O)NCc1ccccc1/C=C/C(=O)N[C@@H](CO)C(=O)N1Cc2ccccc2C[C@@H]1C(=O)N1[C@H](C(=O)N[C@@H](CCCNC(=N)N)C(=O)O)C[C@@H]2CCCC[C@@H]21 (H-[dR]R[X2]S[dTic][Oic]R-OH),120 ± 8 nM
5,N=C(N)NCCC[C@@H](N)C(=O)N[C@@H](CCCNC(=N)N)C(=O)NCc1cccc(/C=C/C(=O)N[C@@H](CO)C(=O)N2Cc3ccccc3C[C@@H]2C(=O)N2[C@H](C(=O)N[C@@H](CCCNC(=N)N)C(=O)O)C[C@@H]3CCCC[C@@H]32)c1 (H-[dR]R[X5]S[dTic][Oic]R-OH),496 nM
6,N=C(N)NCCC[C@@H](N)C(=O)N[C@@H](CCCNC(=N)N)C(=O)NCc1ccccc1CCC(=O)N[C@@H](CO)C(=O)N1Cc2ccccc2C[C@@H]1C(=O)N1[C@H](C(=O)N[C@@H](CCCNC(=N)N)C(=O)O)C[C@@H]2CCCC[C@@H]21 (H-[dR]R[X8]S[dTic][Oic]R-OH),563 nM
7,N=C(N)NCCC[C@@H](N)C(=O)N[C@@H](CCCNC(=N)N)C(=O)NCC1CCCCC1/C=C/C(=O)N[C@@H](CO)C(=O)N1Cc2ccccc2C[C@@H]1C(=O)N1[C@H](C(=O)N[C@@H](CCCNC(=N)N)C(=O)O)C[C@@H]2CCCC[C@@H]21 (some centres unmarked) (H-[dR]R[X11]S[dTic][Oic]R-OH),638 nM
8,N=C(N)NCCC[C@@H](N)C(=O)N[C@@H](CCCNC(=N)N)C(=O)NCc1cccc(CCC(=O)N[C@@H](CO)C(=O)N2Cc3ccccc3C[C@@H]2C(=O)N2[C@H](C(=O)N[C@@H](CCCNC(=N)N)C(=O)O)C[C@@H]3CCCC[C@@H]32)c1 (H-[dR]R[X13]S[dTic][Oic]R-OH),466 nM
